The source of these data is patent US8148578B2, “Fast acting naratriptan composition” (Emisphere Technologies Inc., priority 2008, dated 2012).

Where two headings read alike, the source gives them in different places.

Data set [1] is described as follows: Oral pharmacokinetics of naratriptan in rats, alone or combined with an absorption enhancer carrier. To be noted: Nar 10 mg/kg, carrier 200 mg/kg. It counts as in vivo, Sprague-Dawley rats. The protocol: In the present invention, the delivery system is the pharmaceutical formulations which may be in the form of a liquid or solid. Liquid formulations may be water-based. The absorption enhancer was dissolved in deionized water. 10 N NaOH solution was used to help dissolving acid form carriers. HCl was added to lower pH of the absorption enhancer stock solution if the pH was higher than 7.4. Naratriptan powder was added to the absorption enhancer solution 5 minutes before dosing. The final concentration of drug was 10 mg/ml, and the final concentration of carrier was 200 mg/ml for the study.
Naratriptan is also designated Nar. Naratriptan was administered alone to rates orally as a control. For oral dosing, single solutions were administrated at time 0, in the following manner: (a) each absorption enhancer carrier (200 mg/kg) in combination with Nar (10 mg/kg) was administered orally to rats; and (b) Nar (10 mg/kg) alone was administered orally to rats. Blood samples were collected by retro-orbital bleed under CO2 anesthesia pre-dosing (0 minute), and 5, 15, 30, 40, 50, 60, 120 and 240 minutes after dosing. […] Both, the Nar/2-HPOD and Nar/2-HPHM combination took approximately ½ the time of Naratriptan alone. […] Also the mean Cmax value of the Nar/4-PPED combination was approximately 2-fold higher compared to that obtained following Naratriptan alone.

The conditions of data set [2]: cited from earlier work.
The mark [3] stands for this setting: Sprague-Dawley, rat, naratriptan in plasma, fasted male rats, single oral dose, n=5.

As a reminder, the Cmax is the maximum level reached in the sampled fluid or tissue. Usually Tmax stands for the time from dosing to the highest level. For `CNS(=O)(=O)CCc1ccc2[nH]cc(C3CCN(C)CC3)c2c1` [Naratriptan], the “time of mean peak Naratriptan plasma concentration post-dose” value in data set [1] (Example 1, rats, oral) came to 27 min. Moreover, in data set [1] (setting [3]), the Cmax was 1050 ng/mL. The time to peak (Tmax) in data set [1] (setting [3]) was 27 min; in data set [2] (during a migraine attack) it was 180 to 240 min. In addition, in data set [1] (naratriptan in plasma, fasted male rats, single oral dose, n=5), the “AU Clast” value amounted to 62851 ng·min/mL. Also, the “time to peak concentrations” value in data set [2] (2.5 mg tablet orally) is 2 to 3 h. In addition, the oral bioavailability result in data set [2] (naratriptan tablets) is recorded as “about 70%”.
